Where a SMILES comes first, the peptide text is derived from it. Bridges are numbered along the chain shown (N, C = ends). Where no end group is shown, it is not given here. [ ]: non-standard residue; d: D form. The star is where a group is joined. hArg = N=C(N)NCCCC[C@H](N)C(=O)O; Myristoyl = CCCCCCCCCCCCCC(=O)*; Mpa = O=C(O)CCS
Legend:
[1] = tested on: human platelets; assay: Human platelet granule (ATP) secretion (lumiaggregometer); type: cell-based; conditions: for integrin-dependent second wave of ATP/granule secretion induced by U46619 / integrin-independent first wave of ATP/granule secretion induced by U46619: human platelets (Integrilin: mouse and human platelets); for ATP secretion induced by thrombin: washed human platelets pretreated with peptide
Protocol: (§1) For human subjects, Institutional Review Board approval was obtained from the University of Illinois at Chicago, and informed consent from volunteers was obtained in accordance with the Declaration of Helsinki. Platelets were prepared as previously described (33). Platelet aggregation and adenosine triphosphate (ATP) secretion were measured simultaneously in a lumiaggregometer (Chronolog) at 37° C. with stirring (1000 rpm), as previously described (34).
(§2) To prepare platelet-rich plasma (PRP), whole blood was anticoagulated with 3.8% trisodium citrate. To prepare human platelets, one-seventh volume of ACD was used as anticoagulant. Platelets were washed twice and resuspended in modified Tyrode's buffer as previously described (27). Platelet aggregation and adenosine triphosphate (ATP) secretion were measured simultaneously in a lumiaggregometer (Chronolog) at 37° C. with stirring (1000 rpm) as previously described (28).

[2] = Pharmacokinetics in mice; type: in vivo, mouse; conditions: intravenous injection of 5 mg/kg (5 μmol/kg)
Protocol: For pharmacokinetic studies, CD-1 mice were intravenously injected with 5 mg/kg (5 μmol/kg) M3mP6 (potential therapeutic dose). At the following time points: 0 (pre-dose) min, 5 min, 10 min, 30 min, 1, 2, 4, 6, and 24 hours, 3 drug-treated mice were sacrificed, and their blood drawn via vena cava into K2EDTA tubes. Whole blood and plasma were analyzed for M3mP6 concentrations using Agilent 1290 Infinity LC and 6430 triple quadrupole mass spectrometer and MassHunter software.

[3] = Pharmacokinetics in rats (5-day infusion); design: species or system rat; conditions: Sprague-Dawley, in vivo
Protocol: (§3) Toxicological responses to bolus and continuous intravenous infusion of M3mP6 HLPN were performed using jugular vein catheterized (JVC) Sprague-Dawley (SD) rats (6-8 weeks old and […]), which were quarantined for at least 3 day after arrival. Four SD rats (n=2 per sex) was given an IV bolus dose of M3mP6 (100 mg/kg, dose volume 10 mL/kg) followed by IV infusion dose of M3mP6 for 24 hr (25 mg/kg/hr for a total dose of 600 mg/kg/day). […] A pilot 7-day continuous infusion study in rats was performed similarly with lower drug concentrations. The parameters observed include mortality, clinical signs, body weights, hematology, clinical chemistry and organ weights. For pharmacokinetic studies, plasma samples for drug analysis were obtained from blood samples collected in satellite 6 males and 6 females (3 rat/sex per time-point) in the dose Groups 3 and 4 (Phase 2) at the following time-point on Day 1 after the bolus dose and infusion were started: 5, 10 and 30 minutes, and 1, 2, 6 and 24 hours. Additional blood samples were collected prior to the end of 5-day infusion, immediately after stopping the infusion, and at 30 minutes, and 1, 4, 6, 24 and 48 hours after the end of the infusion.

[4] = tested on: Sprague-Dawley (SD) rats; assay: Toxicity of bolus and continuous intravenous infusion in rats; type: in vivo; conditions: IV bolus 100 mg/kg followed by IV infusion 25 mg/kg/hr for 24 hr
Protocol: as §3

[5] = tested on: C57BL/6 mice; assay: Tail bleeding time; conditions: cangrelor 30 μg/kg; for tail bleeding, drugs injected after initiation of thrombosis: M3mP6 10 μmol/kg; for tail bleeding time vs normal control: M3mP6 HLPN 10 μmol/kg, aspirin 4.3 mg/kg, clopidogrel 4 mg/kg, ticagrelor 3 mg/kg, MB2mP6
Protocol: M3mP6 was administered via retro-orbital injection 15 minutes prior to procedure.
Tail bleeding time was performed as previously described (21, 39). Eight- to 10-week-old C57BL/6 mice were anesthetized with isoflurane. After cutting 0.5-cm-long segment of the distal tip of the tail, their tails were immersed in 0.15 M NaCl immediately at 37° C. Tail bleeding time was defined as the time between cutting tail and stable cessation of bleeding (no rebleeding within 60s). […] If bleeding persisted at 15 minute time point, bleeding was stopped by application of pressure. Data were analyzed using Mann-Whitney test to compare medians between groups.
Tail bleeding time was performed as previously described (16, 29). Eight- to 10-week-old C57BL/6 mice weighing 20-25 g were anesthetized with isoflurane. After cutting a 0.5-cm-long segment off the distal tip of the tail, their tails were immersed in 0.15 M NaCl immediately at 37° C. Tail bleeding time was defined as the time between cutting the tail and stable cessation of bleeding (no re-bleeding within 60s). […] If bleeding persisted at 15 minutes, bleeding was stopped by application of pressure. Data were analyzed using the Mann-Whitney test to compare medians between groups.

[6] = Acute maximal tolerated dose (MTD) in mice; conditions: mouse, in vivo, 60 mg/kg; CD-1 mice, IV tail vein, single injection, observed 8 days; read-out: maximal tolerated dose (MTD) = maximal feasible dose
Protocol: Four more animals were then injected with the same dose. The animals were observed 2 times per day for 8 days for clinical signs of toxicity.

[7] = tested on: C57BL/6 mice; assay: FeCl3-induced mouse carotid artery thrombosis model; type: in vivo; conditions: for formation of stable occlusive thrombus / occlusion time vs normal control: 7.5% FeCl3, M3mP6 HLPN 5 or 10 μmol/kg retro-orbital 15 min before, aspirin 4.3 mg/kg oral 2 h, clopidogrel 4 mg/kg oral 2 h, MB2mP6 15 min before; for anti-thrombotic effect compared with M3mP6 HLPN (10 μmol/kg), pre-injury dosing: clopidogrel 4 mg/kg, ticagrelor 3 mg/kg, aspirin 4.3 mg/kg oral, cangrelor 30 μg/kg retro-orbital, MB2mP6
Protocol: The right carotid artery was isolated (34, 37). A MA-0.5SB nanoprobe (Transonic Systems, Ithaca, NY) was hooked to the carotid artery to monitor blood flow with a TS420 flowmeter (Transonic Systems) as previously described (38). After stabilization, carotid arterial thrombosis was induced with 7.5% ferric chloride (FeCl3) (Sigma Aldrich, St. Louis, MO), a filter paper disc (2 mm diameter) soaked with 1.2 μL of 7.5% FeCl3 was placed on top of the artery for 3 minutes, and then removed. M3mP6 HLPN, HLPN of scrambled control peptide, HLPN of a second control peptide carrying AAA mutation or physiological saline solution were injected 15 minutes before procedure retro-orbitally. […] To study the effect of post-injury drug injection on thrombosis development, the filter paper disc soaked with 1.2 μl 3.75% FeCl3 were placed on artery for 2 minutes, and drugs were injected retro-orbitally 3 minutes after removing the filter paper. Blood flow was monitored continuously until 5 minutes after occlusion or for 30 minutes if no occlusion occurred. Time to occlusion was defined as the time between the removal of the filter paper and stable occlusion (no blood flow for 2 minutes).
Eight- to 10-week-old C57BL/6 mice (20-25 g body weight) were anesthetized by isoflurane inhalation. The right carotid artery was isolated. A MA-0.5SB nanoprobe (Transonic Systems, Ithaca, NY) was hooked to the carotid artery to monitor blood flow with a TS420 flowmeter (Transonic Systems) as previously described (29). After stabilization, a filter paper disc (2 mm diameter) soaked with 1.2 μL of 7.5% FeCl3 (Sigma Aldrich, St. Louis, MO) was placed on top of the carotid artery for 3 minutes to induce thrombosis and then removed. MB2mP6 or scrambled control peptide were injected 15 minutes before the procedure retro-orbitally. Blood flow was monitored continuously until 5 minutes after occlusion or for 15 minutes if no occlusion occurred. Time to occlusion was defined as the time between the removal of the filter paper and stable occlusion (no blood flow for 5 minutes).

[8] = tested on: C57BL/6 mice; assay: Laser-induced mouse cremaster arteriolar thrombosis and intravital microscopy; type: in vivo; conditions: M3mP6 HLPN 10 μmol/kg, cangrelor 30 μg/kg
Protocol: Laser-induced thrombosis and intravital microscopy are performed as previously described using male C57BL/6 mice (6-8 weeks old) anesthetized by intraperitoneal injection of ketamine and xylazine (36). Platelet thrombi were indicated by infusion of DyLight 649-labeled anti-mouse […], Germany). Fibrin deposition was tracked by Alexa Fluor (AF) 488-labeled monoclonal anti-fibrin antibody (clone 59D8) as previously described (25). Suspensions of M3mP6 HLPN (10 μmol/kg) or a control peptide (Myr-ERAFEE (SEQ ID NO: 47)) HLPN in 0.15 M NaCl or cangrelor were injected 15 min or immediately prior to induction of injury. Fluorescence and bright-field images were recorded by an Olympus BX61W microscope with a 603/1.0 NA water immersion objective and a high-speed camera (5 frame/second) through an intensifier at 27-30 injury sites in 7 mice per group. The movies shown are compressed to 100 frame/second.

[9] = tested on: C57BL/6 mice; assay: Arterial perforation bleeding analysis (carotid artery perforation model of surgical bleeding); type: in vivo, mouse; conditions: M3mP6 HLPN 10 μmol/kg; cangrelor loading dose 30 μg/kg
Protocol: The right carotid artery was isolated as previously described (34, 37) and punctured with a 27½G needle in the middle of carotid artery. The perforating wound was immediately covered with a 4×4 mm hemostatic pad (CERTI-GAUZE™, Kansas City, MO), which serve to absorb extravascular blood and also help stop bleeding similarly to that during vascular procedures. The pad was removed after 15 minutes regardless whether bleeding continued or not. The volume of blood absorbed on the pad during the 15-minute period was quantified by estimating the amount of hemoglobin. To do so, adsorbed blood on the pad was dissolved into 30 mL double distilled water. To 1 mL of dissolved blood, 1 mL of the 2× Drabkin's Solution was added. After fully mixing and incubating for 20 minutes at room temperature, the absorbance of the samples was analyzed at 540 nm wave length with a spectrophotometer. Known volumes of blood were similarly analyzed to establish a standard curve for the calculation of blood volume on the pad. Data were analyzed by Mann-Whitney test for statistical significance.

[10] = tested on: human platelets; assay: Human platelet aggregation (lumiaggregometer); type: cell-based; conditions: washed human platelets pretreated with peptide
Protocol: as §1, §2

[11] = Peptide loading, peptide concentration and dissolution of the nanoparticle/micelle formulation; type: physicochemical; conditions: HLPN, or lipid micellar suspension for mP6
Description: The peptide myr-FEEERL(SEQ ID NO: 25) was modified from the original […] cytoplasmic domain sequence to make it more suitable to form peptide-based nanoparticle, and was formulated to form lipid-stabilized high-loading peptide nanoparticles together with PEG2000-DSPE (Avanti Polar Lipids Inc. Alabaster, AL), L-α-phosphatidylcholine (egg PC, Type XI-E, Sigma-Aldrich, St. Louis, MO) with a peptide to PEG-DSPE to PC molar ratio of 36.8:51.7:11.5 or 50:40:10 (further improved formulation with identical in vivo effect) using thin-film rehydration (21, 31). The size distribution of nanoparticles were determined using dynamic light scattering (DLS) (Malvern, Zetasizer Nano ZS90, Worcestershire, U.K.) as previously described (32). This method uses light scattering to monitor the Brownian motion of the particles. Particle size is presented as volume weighted diameter distribution.

[12] = reference (21); cited from earlier work

Molecule: N=C(N)NCCCC[C@@H]1NC(=O)CCSSC[C@@H](C(N)=O)NC(=O)[C@@H]2CCCN2C(=O)[C@H](Cc2c[nH]c3ccccc23)NC(=O)[C@H](CC(=O)O)NC(=O)CNC1=O [Integrilin, reference compound] ([Mpa][hArg]GDWPC-NH2; disulfide 1-7)
- integrin-dependent second wave of ATP/granule secretion induced by U46619 [1]: diminished
- integrin-independent first wave of ATP/granule secretion induced by U46619 [1]: significantly enhanced
- platelet granule secretion, low dose thrombin, integrin antagonist-treated platelets ([1]; wild type mouse or human platelets): enhanced

Molecule: CCCCCCCCCCCCCC(=O)N[C@@H](Cc1ccccc1)C(=O)N[C@@H](CCC(=O)O)C(=O)N[C@@H](CCC(=O)O)C(=O)N[C@@H](CCC(=O)O)C(=O)N[C@@H](CCCNC(=N)N)C(=O)N[C@@H](CC(C)C)C(=O)O [M3mP6, Myr-FEEERL] (Myristoyl-FEEERL-OH; C-terminus assumed)
- half-life ([2]; CD-1, mouse, in vivo, read-out: t1/2−λz (converted)): 2.46 h
- maximum level in whole blood [2]: 33.36 ng/mL
- half-life ([3]; female, rat, iv): 3.7 h
- half-life ([3]; male, rat 5-day infusion study, read-out: t1/2−λz (half-life after cessation of infusion), male (converted)): 3.1 h
- toxicity during 3-4 days post dose (single dose MTD) [4]: no toxicity was observed
- tail bleeding, drugs injected after initiation of thrombosis [5]: but not M3mP6 caused significant bleeding
- MTD at 8 days [6]: 60 mg/kg

Molecule: CC(=O)Oc1ccccc1C(=O)O [aspirin]
- formation of stable occlusive thrombus / occlusion time vs normal control [7]: not significantly different
- occlusive thrombus formation, high dose aspirin experiment ([7]; aspirin 36 mg/kg i.p. 1 hour prior, M3mP6 HLPN 5 μmol/kg, combination): no significant effect

Molecule: CSCCNc1nc(SCCC(F)(F)F)nc2c1ncn2[C@@H]1O[C@H](COP(=O)(O)OP(=O)(O)C(Cl)(Cl)P(=O)(O)O)[C@@H](O)[C@H]1O [cangrelor]
- tail bleeding, drugs injected after initiation of thrombosis [5]: caused significant bleeding
- tail bleeding time vs normal control [5]: dramatically increased
- intravascular fibrin clot formation at the site of vascular injury [8]: moderate effect
- platelet thrombus formation ([8]; preinjected): completely inhibiting
- bleeding from perforated artery vs control mice [9]: caused excessive bleeding
- anti-thrombotic effect compared with M3mP6 (10 μmol/kg), drugs injected after initiation of thrombosis ([7]; 3.75% FeCl3, cangrelor 30 μg/kg): no statistical difference
- anti-thrombotic effect compared with M3mP6 HLPN (10 μmol/kg), pre-injury dosing [7]: moderately but significantly better

Molecule: COC(=O)[C@H](c1ccccc1Cl)N1CCc2sccc2C1 [clopidogrel]
- formation of stable occlusive thrombus / occlusion time vs normal control [7]: moderate but significant delay
- anti-thrombotic effect compared with M3mP6 HLPN (10 μmol/kg), pre-injury dosing [7]: significantly less effective

Molecule: CCCSc1nc(N[C@@H]2C[C@H]2c2ccc(F)c(F)c2)c2nnn([C@@H]3C[C@H](OCCO)[C@@H](O)[C@H]3O)c2n1 [ticagrelor]
- tail bleeding time vs normal control [5]: dramatically prolonged

Molecule: myr-EEERA (Myristoyl-EEERA) [mP5]
- integrin-dependent second wave of ATP/granule secretion induced by U46619 [1]: reduced
- integrin-independent first wave of ATP/granule secretion induced by U46619 [1]: significantly enhanced
- ATP secretion induced by thrombin [1]: enhanced
- thrombin-induced platelet aggregation [10]: partially inhibited

Molecule: myr-FEEERA (Myristoyl-FEEERA) [mP6]
- peptide concentration in injectable/micellar suspension [11]: 1 mM
- peptide loading, of total molar content (mol/mol) [11]: < 4%
- maximal concentration of peptide in lipid micellar formulation [12]: < 1 mM
- maximal peptide content of lipid micellar formulation (mol/mol) [12]: ≤ 4%
- integrin-dependent second wave of ATP/granule secretion induced by U46619 [1]: diminished
- integrin-independent first wave of ATP/granule secretion induced by U46619 [1]: diminished
- ATP secretion induced by thrombin [1]: significantly inhibited
- thrombin-induced platelet aggregation [10]: potently inhibited

— patent US12714678B2, “Peptides and methods of treating sepsis, atherosclerosis, thrombosis, stroke, heart attack and inflammation” (THE BOARD OF TRUSTEES OF THE UNIVERSITY OF ILLINOIS, priority 2019, dated 2026)
